Data reported in ChEMBL document CHEMBL3045444, “Synthesis of Stereoisomers of Ipconazole and Their Fungicidal and Plant Growth Inhibitory Activities” (J Pestic Sci, 1997).
In brackets after ≈: the same amount, converted by molar mass.

Key:
[1] = tested on: Pyricularia oryzae; assay: Antifungal activity against Magnaporthe oryzae after 3 days; assay type: functional, organism-based
[2] = tested on: Bipolaris oryzae; assay: Antifungal activity against Bipolaris oryzae after 3 days; assay type: functional, organism-based
[3] = tested on: Fusarium fujikuroi; assay: Antifungal activity against Fusarium fujikuroi after 3 days; assay type: functional, organism-based
[4] = tested on: Fusarium fujikuroi; assay: Antifungal activity against Fusarium fujikuroi infected in rice plant assessed as control of bakanae disease at 75 ug/ml treated as seed treatment after 2 weeks; assay type: functional
[5] = tested on: Fusarium fujikuroi; assay: Antifungal activity against Fusarium fujikuroi infected in rice plant assessed as control of bakanae disease at 300 ug/ml treated as seed treatment after 2 weeks; assay type: functional
[6] = tested on: Oryza sativa; assay: Growth inhibition of Oryza sativa (rice) assessed as growth rate by measuring first sheath length at 250 ug/ml treated as seed treatment 24 hr before emergence measured after 10 days relative to control; assay type: organism-based; set-up: scale not given: the % may be the effect or the level left; conditions: in vivo, 240 h
[7] = tested on: Bipolaris oryzae; assay: Antifungal activity against Bipolaris oryzae infected in fifth-leaf stage of rice plant assessed as control of brown spot disease at 9 ug/ml treated as foliar application after 6 days; assay type: functional
[8] = tested on: Bipolaris oryzae; assay: Antifungal activity against Bipolaris oryzae infected in fifth-leaf stage of rice plant assessed as control of brown spot disease at 38 ug/ml treated as foliar application after 6 days; assay type: functional
[9] = tested on: Bipolaris oryzae; assay: Antifungal activity against Bipolaris oryzae infected in fifth-leaf stage of rice plant assessed as control of brown spot disease at 150 ug/ml treated as foliar application after 6 days; assay type: functional
[10] = tested on: Fusarium fujikuroi; assay: Antifungal activity against Fusarium fujikuroi infected in rice plant assessed as control of bakanae disease at 18 ug/ml treated as seed treatment after 2 weeks; assay type: functional
[11] = Pyricularia oryzae, 72 h, read-out: EC50
[12] = Bipolaris oryzae, 72 h, read-out: EC50
[13] = Fusarium fujikuroi, 72 h, read-out: EC50

Structure (SMILES) | EC50 [1, 11] [µg/mL] | EC50 [2, 12] [µg/mL] | EC50 [3, 13] [µg/mL] | EC50 [1] [µg/mL] | Activity [4] [%] | Activity [5] [%] | EC50 [2] [µg/mL] | EC50 [3] [µg/mL] | Activity [6] [%] | Activity [7] [%] | Activity [8] [%] | Activity [9] [%] | Activity [10] [%]
CC(C)[C@@H]1CC[C@H](Cc2ccc(Cl)cc2)[C@@]1(O)Cn1cncn1 | 0.04 (≈ 0.12 µM) | 0.2 (≈ 0.599 µM) | 0.03 (≈ 0.0899 µM) | – | – | – | – | – | – | – | – | – | –
CC(C)[C@H]1CC[C@H](Cc2ccc(Cl)cc2)[C@@]1(O)Cn1cncn1 | – | 0.2 (≈ 0.599 µM) | 0.03 (≈ 0.0899 µM) | 0.01 (≈ 0.03 µM) | – | – | – | – | – | – | – | – | –
CC(C)[C@H]1CC[C@@H](Cc2ccc(Cl)cc2)[C@]1(O)Cn1cncn1 | 1 (≈ 3 µM) | 6 (≈ 18 µM) | 10 (≈ 30 µM) | – | – | – | – | – | – | – | – | – | –
CC(C)[C@@H]1CC[C@@H](Cc2ccc(Cl)cc2)[C@]1(O)Cn1cncn1 | 0.7 (≈ 2.1 µM) | 3 (≈ 8.99 µM) | 6 (≈ 18 µM) | – | – | – | – | – | – | – | – | – | –
CC(C)[C@@H]1CC[C@H](Cc2ccc(Cl)cc2)[C@@]1(O)Cn1cncn1 (racemic) | – | – | – | 0.08 (≈ 0.24 µM) | 96.5 | 98.7 | 0.4 (≈ 1.2 µM) | 0.05 (≈ 0.15 µM) | 98.3 | 86 | 84 | 100 | 61.2
CC(C)[C@H]1CC[C@H](Cc2ccc(Cl)cc2)[C@@]1(O)Cn1cncn1 (racemic) | – | – | – | 0.03 (≈ 0.0899 µM) | 97.5 | 99.6 | 0.4 (≈ 1.2 µM) | 0.06 (≈ 0.18 µM) | 90.7 | 71 | 98 | 100 | 52.1
CC(C)[C@@H]1CC[C@@H](Cc2ccc(Cl)cc2)[C@@]1(O)Cn1cncn1 (racemic) | 0.5 (≈ 1.5 µM) | 1 (≈ 3 µM) | 0.9 (≈ 2.7 µM) | – | 59.1 | 95.2 | – | – | 91.7 | 25 | 49 | 92 | 0
CC(C)[C@H]1CC[C@@H](Cc2ccc(Cl)cc2)[C@@]1(O)Cn1cncn1 (racemic) | 0.04 (≈ 0.12 µM) | 0.5 (≈ 1.5 µM) | 0.09 (≈ 0.27 µM) | – | 76.8 | 97.5 | – | – | 82.5 | 53 | 74 | 100 | 9.7
